One experiment deals with FKBP (Homo sapiens, UniProt P62942). In words: PPIase Inhibition Assay. Type of experiment: biochemical. The procedure:
1) Inhibition of PPIase Activity
This assay follows in principle the procedure described in Kofron et al., 1991, Biochemistry 30:6127.
The three main reagents used are PPIase, a substrate for PPIase, and a selected inhibitor compound of the present invention. The basic principle behind this assay is the conversion of the cis isomer of the substrate to the trans form, which conversion is catalyzed by PPIase. Essentially, inhibition of this PPIase activity is measured for the selected compounds. A peptide chymotrypsin substrate containing a proline in the P2 position is only cleaved by chymotrypsin when the Phe-Pro bond is in the trans isomeric configuration. In the presence of excess chymotrypsin, all of the trans peptide isomers are cleaved within approximately five seconds, leaving only cis forms.
The cis peptide will spontaneously convert to the trans isomer at a slow rate. The cis to trans conversion is catalyzed by isomerases at a much faster rate than this spontaneous conversion. Proteins with PPIase activity are examples of such isomerases. After isomerization, the peptide is cleaved by chymotrypsin releasing p-nitroaniline which can be monitored at 390 nm. The rate of release is then calculated using a first order rate plus offset equation utilizing the ENZFITTER program (Leatherbarrow, BIOSOFT, Cambridge, United Kingdom).
In a plastic cuvette are added 950 ul of ice cold assay buffer (25 mM HEPES, pH 7.8, 100 mM NaCl), 10 uL of FKBP (2.5 uM in 10 mM Tris-Cl pH 7.5, 100 mM NaCl, 1 mM dithiothreitol), 25 ul of chymotrypsin (50 mg/ml in 1 mM HCl) and 10 ul of the test compound at various concentrations in dimethyl sulphoxide. The reaction is initiated by addition of 5 ul of substrate (Succinyl-Ala-Phe-Pro-Phe-para-nitroanilide, 5 mg/ml in 235 mM LiCl in trifluoroethanol).
The absorbance at 390 nm versus time is monitored for 90 sec using a Beckman DU70 spectrophotometer. The absorbance versus time data files are transferred to an IBM XT computer and the rate constants determined using the commercial enzfitter program. For each set of data, the uncatalyzed rate of conversion is measured and the uninhibited enzymatic rate determined. The data are expressed as % Activity remaining and are calculated as follows:
% Activity Remaining=(kobs -kuncat)/(kuninh
where kobs is the rate in the presence of a selected test compound, kuncat is the rate in the absence of enzyme, and kuninh is the rate in the presence of enzyme
Data was plotted as the velocity in the absence of the inhibitor (V-) divided by the velocity in the presence of inhibitor (V+) versus the inhibitor concentration. The IC50 can be determined following linear regression as the inhibitor concentration where

Another experiment has as its system human T-cells. In words: Suppression of Human T-Cell Proliferation Assay (PHA-stimulated, [3H]-thymidine incorporation). Type of experiment: cell-based. The settings on record: read-out: IC50. The source says: 2) Human T Lymphocyte Inhibition
Inhibition of mitogen-induced T-cell proliferation can be used to profile immunosuppressive activity of test compounds. In the description of the assay which follows, mitogen-induced T-cell activation was used to test the inhibitory potencies of select compounds of the present invention.
In an assay similar to that described by Bradley in Mishell et al. (Eds.), 1980, Selected Methods in Cellular Immunology, pp 156-161, W. H. Freeman & Co., San Fransisco, Calif., T-cells were stimulated by incubation with phytohemagglutinin (PHA) which binds to cell surface molecules, including the T-cell receptor. This stimulation results in proliferation which can be measured by incorporation of [^3 H]-thymidine into cellular DNA.
The immunosuppressive properties of the compounds of the present invention can be determined by adding various concentrations of the compounds to these cultures and measuring the effect on T-cell proliferation.
Suppression of Human T-Cell Proliferation Assay
Fresh LeukoPaks were obtained from the New York Blood Center, New York, N.Y. The cells, including erythrocytes and leukocytes, were diluted with Hank's Balanced Salt Solution (HBSS) (GIBCO, Grand Island, N.Y.) and layered over Lymphoprep (Nycomed Pharma AS, Oslo, Norway) in sterile 50 ml conical centrifuge tubes. Lymphocytes were isolated at the Hank's/Nycomed interface after centrifugation at 2000×g, 4° C. for 15 min. The lymphocytes were washed with Minimal Essential Medium (GIBCO) containing 2% fetal bovine serum (FBS) (Sigma Chemical Co., St. Louis, Mo.), 1% HEPES buffer (GIBCO) and 1% Penicillin-Stretomycin solution (GIBCO).
T-cells were further purified essentially by sheep erythrocyte (SRBC) rosetting as described by Morimoto et al., 1983, J. Immunol. 130:157. The isolated lymphocytes were adjusted to 2×10^7 cells/ml and 5 ml aliquots of the cell suspension were incubated for 10 minutes at room temperature with 5 ml of a 5% SRBC (Cappel, Organon Technika Corp., West Chester, Pa.) suspension. The cells were gently pelleted by centrifugation at 300 rpm for 10 minutes, followed by a 1 hour incubation at room temperature to allow rosette formation. The cells were gently resuspended,layered over Lymphoprep and centrifuged for 30 minutes at 500×g. The pellet, containing rosetted T-cells and SRBC was treated with ice cold buffered ammonium chloride (GIBCO) to lyse the erythrocytes. T-cells were washed twice with HBSS.
Purified T-cells were resuspended at 2×10^6 cells/ml in complete culture medium composed of RPMI-1640 (Whittaker Bioproducts, Walkerville, Md.) with 10% FBS (Sigma), 2 mM L-glutamine (GIBCO), 1% Penicillin-Streptomycin (GIBCO) and 15 mM HEPES (GIBCO). In 96-well plates (Becton Dickinson, Lincoln Park, N.J.), 0.1 ml aliquots of T-cell suspension were mixed with 0.05 ml of 40 μg/ml PHA-M (Sigma). The compounds of this invention were dissolved in dimethylsulfoxide at 10 mM and various dilutions in complete medium were added in duplicate wells (0.05 ml/well). The plates were incubated at 37° C. in a humidified atmosphere of 5% carbon dioxide and 95% air for 72 hours.
Proliferation was assessed by measurement of [^3 H]-thymidine incorporation. During the last 6 hours of incubation, the cells were pulse labelled with 1 μCi/well of [^3 H]-thymidine (New England Nuclear, Boston, Mass.). The cells were harvested onto glass fiber paper using a plate harvester and the radioactivity incorporated into cellular DNA corresponding to individual wells was measured by standard liquid scintillation counting methods.
(Dividing cells build labelled thymidine or BrdU into new DNA.)

The mark [1] stands for this setting: concentration of inhibitor required for 50% inhibition of enzyme activity, FKBP, substrate Succinyl-Ala-Phe-Pro-Phe-para-nitroanilide, TABLE I.
Setting [2] is: concentration inhibiting [3H]-thymidine incorporation of PHA-stimulated T-cells by 50%, 72 hours, TABLE 2.

Read-outs that look alike come from different tables or passages of the source. Where only a bound is given, the exact number is not on record here.

FKBP, sequence (P62942 whole entry): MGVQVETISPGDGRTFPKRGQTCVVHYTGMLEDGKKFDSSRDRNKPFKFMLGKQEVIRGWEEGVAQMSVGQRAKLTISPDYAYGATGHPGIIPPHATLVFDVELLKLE

`C/C=C/C=C/COC(=O)CN1CCC[C@H]1C(=O)N[C@H](C(=O)NCc1ccccc1)[C@@H](C)CC` (relative stereo) [Example 12, L-Isoleucine, N-[1-(2-(trans,trans-Hexa-2,4-dienyl-1-oxy)-2-Oxoethyl)-L-Prolyl] Benzylamide]: the results for the IC50 at FKBP (setting [1]) and in the experiment on human T-cells (setting [2]) were 5.8 µM and 35 µM, respectively.
As for `CC[C@H](C)[C@H](NC(=O)[C@@H]1CCCN1CC(=O)OCc1ccccc1)C(=O)NCc1ccccc1` [Example 5, L-Isoleucine, N-[1-(2-Benzyloxy-2-Oxoethyl)-L-Prolyl] Benzylamide], the IC50 against FKBP (setting [1]) is 2.2 µM.
The compound `CC[C@H](C)[C@H](NC(=O)[C@@H]1CCCN1CC(=O)OC)C(=O)NCc1ccccc1` [Example 6, L-Isoleucine, N-[1-(2-Methoxy-2-Oxoethyl)-L-Prolyl] Benzylamide] returned an IC50 against FKBP of less than 50 µM.
Consider `CC[C@H](C)[C@H](NC(=O)[C@@H]1CCCN1CC(=O)c1ccccc1)C(=O)NCc1ccccc1` [Example 7, L-Isoleucine, N-[1-(2-Phenyl-2-Oxoethyl)-L-Prolyl] Benzylamide], for which the 50% inhibitory concentration (IC50) against FKBP (setting [1]) is 2.7 µM; in the experiment with human T-cells (setting [2]) it was less than 50 µM.
Regarding `CC[C@H](C)[C@H](NC(=O)[C@@H]1CCCN1CC(=O)c1ccc2ccccc2c1)C(=O)NCc1ccccc1` [Example 8, L-Isoleucine, N-[1-(2-Naphth-2-yl-2-Oxoethyl)-L-Prolyl] Benzylamide], the IC50 at FKBP (setting [1]) turned out to be 3.4 µM; in the experiment on human T-cells (setting [2]) it was 50 µM.
On to `CC[C@H](C)[C@H](NC(=O)[C@@H]1CCCN1CC(=O)c1ccc(-c2ccccc2)cc1)C(=O)NCc1ccccc1` [Example 9, L-Isoleucine, N-[1-(2-(Biphenyl-4-yl)-2-Oxoethyl)-L-Prolyl] Benzylamide], for which the IC50 against FKBP was less than 50 µM; with human T-cells, 50 µM.
As to `CC[C@H](C)[C@H](NC(=O)[C@@H]1CCCN1CC(=O)c1sc2ccc(Cl)cc2c1C)C(=O)NCc1ccccc1` [Example 11, L-Isoleucine, N-[1-(2-(5-Chloro-3-Methyl-benzo[B]thiophene-2-yl)-2-Oxoethyl)-L-Prolyl] Benzylamide], the IC50 against FKBP (setting [1]) was 50 µM; in the experiment with human T-cells (setting [2]) it was 34 µM.
On to `CC[C@H](C)[C@H](NC(=O)[C@@H]1CCCN1CC(=O)c1ccc(Cl)cc1)C(=O)NCc1ccccc1` [Example 13, L-Isoleucine, N-[1-(2-(4-Chlorophenyl)-2-Oxoethyl)-L-Prolyl] Benzylamlde], for which the IC50 against FKBP (setting [1]) was less than 50 µM; in the experiment with human T-cells (setting [2]) it was greater than 50 µM.
In the same order, the values of `CC[C@H](C)[C@H](NC(=O)[C@@H]1CCCN1CC(=O)c1ccc(C)cc1)C(=O)NCc1ccccc1` [Example 14, L-Isoleucine, N-[1-(2-(4-Methylphenyl)-2-Oxoethyl)-L-Prolyl] Benzylamide] are less than 50 µM and greater than 50 µM.
As to `CC[C@H](C)[C@H](NC(=O)[C@@H]1CCCN1CC(=O)c1ccc(OC)cc1)C(=O)NCc1ccccc1` [Example 15, L-Isoleucine, N-[1-(2-(4-Methoxylphenyl)-2-Oxoethyl)-L-Prolyl] Benzylamide], the IC50 was less than 50 µM against FKBP (setting [1]) and 17 µM in the experiment with human T-cells (setting [2]).
On to `CC[C@H](C)[C@H](NC(=O)[C@@H]1CCCN1CC(=O)c1ccc(OC)cc1OC)C(=O)NCc1ccccc1` [Example 28, L-Isoleucine, N-[1-(2-(2,4-Dimethoxyphenyl)-2-Oxoethyl)-L-Prolyl] Benzylamide], for which the IC50 on FKBP (setting [1]) is less than 50 µM.
Still for that read-out and setting: in the case of `CC[C@H](C)[C@H](NC(=O)[C@@H]1CCCN1CC(=O)c1ccccc1[N+](=O)[O-])C(=O)NCc1ccccc1` [Example 29, L-Isoleucine, N-[1-(2-(2-Nitrophenyl)-2-Oxoethyl)-L-Prolyl] Benzylamide] it was less than 50 µM; in that of `CC[C@H](C)[C@H](NC(=O)[C@@H]1CCCN1CC(=O)c1ccc([N+](=O)[O-])cc1)C(=O)NCc1ccccc1` [Example 30, L-Isoleucine, N-[1-(2-(4-Nitrophenyl)-2-Oxoethyl)-L-Prolyl] Benzylamide], less than 50 µM.
Consider `CC[C@H](C)[C@H](NC(=O)[C@@H]1CCCN1CC(=O)c1ccc(-c2ccccc2)cc1)C(=O)N1CCc2ccccc2C1` [Example 50, L-Isoleucine, N-[1-(2-(Biphenyl-4-yl)-2-Oxoethyl)-L-Prolyl] 1,2,3,4-Tetrahydroisoquinolinamide], for which the IC50 at FKBP is 50 µM.
On the same count and under the same terms, the same measure for `CC[C@H](C)[C@H](NC(=O)[C@@H]1CCCN1CC(=O)c1ccc(-c2ccccc2)cc1)C(=O)OCc1ccccc1` [Example 51, L-Isoleucine, N-[1-(2-(Biphenyl-4-yl)-2-Oxoethyl)-L-Prolyl] Benzyl Ester]: greater than 50 µM; for `CSCC[C@H](NC(=O)[C@@H]1CCCN1CC(=O)c1ccc(-c2ccccc2)cc1)C(=O)NCc1ccccc1` [Example 54, L-Methionine, N-[1-(2-(Biphenyl-4-yl)-2-Oxoethyl)-L-Prolyl] Benzylamide]: greater than 50 µM.
As for `CCOC(=O)C1CCCN(C(=O)CN2CCC[C@H]2C(=O)N[C@H](C(=O)NCc2ccccc2)[C@@H](C)CC)C1` (stereo partly drawn) [Example 72, L-Isoleucine, N-[1-[2-[N-(Piperidine-3-Carboxylic Acid Ethyl Ester)]-2-Oxoethyl]-L-Prolyl] Benzylamide], on FKBP (setting [1]), the IC50 is less than 5 µM.
Still for that read-out and setting: the same measure for `CC[C@H](C)[C@H](NC(=O)[C@@H]1CCCN1CC(=O)NC1CCCC1)C(=O)NCc1ccccc1` [Example 79, L-Isoleucine, N-[1-[2-(N-Cyclopentylamino)-2-Oxoethyl]-L-Prolyl] Benzylamide]: greater than 5 µM; for `CC[C@H](C)[C@H](NC(=O)[C@@H]1CCCN1CC(=O)NCc1ccccc1)C(=O)NCc1ccccc1` [Example 80, L-Isoleucine, N-[1-[2-(N-(Phenylmethylamino))-2-Oxoethyl]-L-Prolyl] Benzylamide]: greater than 5 µM; for `CC[C@H](C)[C@H](NC(=O)[C@@H]1CCCN1CC(=O)NCC1CCCCC1)C(=O)NCc1ccccc1` [Example 81, L-Isoleucine, N-[1-[2-(N-(Cyclohexylmethylamino))-2-Oxoethyl]-L-Prolyl] Benzylamide]: greater than 5 µM.

In general, IC50 refers to the concentration needed to halve the response being measured.

The record behind these values is US5686424A, “2-oxoethyl derivatives as immunosuppressants” (Miles Inc., priority 1995, dated 1997).
